Laboratory results taken from ChEMBL document CHEMBL5344446, “Constituents from the Polar Extract of Pisolithus arhizus and Their Anti-inflammatory Activity” (J Nat Prod, 2024).
Activity calls are given as the source filed them. No cut-off for these calls is given here.

What was measured:
[1] = tested on: THP-1; experiment: Downregulation of pSTAT3 protein expression in LPS-induced PMA-differentiated human THP-1 cells at […] pretreated with LPS for 3 hrs followed by compound addition and measured after 6 hrs by Western blot analysis; format: functional, cell-based; conditions: dose lower 25.0 mg/ml
[2] = tested on: THP-1; experiment: Antiinflammatory activity in PMA-differentiated human THP-1 cells assessed as reduction in LPS-induced IL-6 secretion at 25 to 30 ug/ml pretreated with LPS for 3 hrs followed by compound addition and measured after 6 hrs by ELISA; format: functional, cell-based; conditions: dose 25-30 µg/ml
[3] = tested on: THP-1; experiment: Cytotoxicity against PMA-differentiated human THP-1 cells assessed as reduction in cell viability at 25 to 100 ug/ml measured after 24 hrs by MTT assay; format: toxicity, cell-based; conditions: thp-1, 24 h, dose 25-100 µg/ml

In the case of O=C1O/C(=C(/C(=O)O)c2ccc(O)cc2)C(O)=C1c1ccc2c(O)c(O)cc(C3=C(O)/C(=C(\C(=O)O)c4ccc(O)cc4)OC3=O)c2c1, the Activity [1] is reported as “Active”, the Activity [2] is reported as “Active” and the Activity [3] is reported as “Non-Toxic”.
